pIC50: −log10 of the molar value.

This note sets out measurements from patent US9862716B2, “TRKA kinase inhibitors, compositions and methods thereof” (Merck Sharp & Dohme Corp., priority 2014, dated 2018).

The experiment deals with T1, human TrkA receptor (Homo sapiens, UniProt P04629).
T1 construct: host or cells: U2OS cells (PathHunter cell line)
As to the kind of experiment: DiscoverX PathHunter TrkA functional assay (NGF-stimulated U2OS cells). It counts as cell-based. The settings on record: U2OS cells expressing human TrkA-PK, Shc1-EA and p75NTR; compound 1 h, then NGF at ~80% of maximal response for 3 h; luminescence.

T1 sequence (P04629 33-796): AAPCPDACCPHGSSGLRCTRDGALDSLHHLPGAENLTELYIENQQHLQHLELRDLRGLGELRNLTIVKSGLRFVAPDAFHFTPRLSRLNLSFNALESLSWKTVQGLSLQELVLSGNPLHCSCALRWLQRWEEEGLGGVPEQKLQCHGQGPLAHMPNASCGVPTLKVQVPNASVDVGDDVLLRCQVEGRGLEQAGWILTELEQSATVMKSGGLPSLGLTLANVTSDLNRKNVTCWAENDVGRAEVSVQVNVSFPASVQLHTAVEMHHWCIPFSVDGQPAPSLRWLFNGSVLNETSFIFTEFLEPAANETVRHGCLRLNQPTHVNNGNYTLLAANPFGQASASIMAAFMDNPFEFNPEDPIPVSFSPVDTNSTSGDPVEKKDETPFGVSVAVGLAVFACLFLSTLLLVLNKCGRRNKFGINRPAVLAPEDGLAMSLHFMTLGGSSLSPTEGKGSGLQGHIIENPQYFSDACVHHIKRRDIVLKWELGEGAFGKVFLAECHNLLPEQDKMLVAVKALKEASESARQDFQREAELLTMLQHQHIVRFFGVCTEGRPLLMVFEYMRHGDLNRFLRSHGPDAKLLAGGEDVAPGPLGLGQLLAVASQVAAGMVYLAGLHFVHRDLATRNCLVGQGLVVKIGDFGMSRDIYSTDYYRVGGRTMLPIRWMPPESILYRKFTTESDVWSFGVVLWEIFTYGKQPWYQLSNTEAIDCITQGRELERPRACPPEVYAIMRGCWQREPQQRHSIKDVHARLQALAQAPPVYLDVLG
Protocol: TrkA functional activity was measured using a DiscoverX PathHunter assay. In this assay, U2OS cells express the human TrkA receptor as a fusion with the weakly complementing fragment of B-galactosidase, which DiscoverX calls “Prolink (PK)”; additionally, Shc1 is fused with a larger fragment, which is called “Enzyme Acceptor (EA)”. Activation of the TrkA receptor, upon NGF addition, results in the kinase domain being phosphorylated, resulting in subsequent recruitment of Shc1-EA protein. That recruitment results in an active B-galactosidase enzyme that is detected by addition of a chemiluminescent substrate. The human p75^NTR protein was also expressed as a co-receptor for NGF.
All reagents were purchased from DiscoverX, except for the receptor agonists (NGF, BDNF, NT3) which were purchased from Peprotech. Cells were expanded and frozen into cryovials, and stored in the vapor phase of liquid nitrogen, and thawed immediately before use. Thawed cells were added to a 384-well plate at 7500 cells/well, and allowed to incubate overnight. Compound at various concentrations was added the following morning and allowed to incubate on cells for 1 h. Then, NGF was added at a concentration sufficient to elicit ˜80% of a maximal response and allowed to incubate for 3 h at ambient temperature. DiscoverX PathHunter detection reagent was then added and the plate was further incubated for 1 h in the dark. The plate was then read via luminescence on the Perkin Elmer Envision.

Consider `Cn1ccc(-c2cc(C(=O)Nc3c(-c4ccccc4)nc4cc(C(C)(C)O)ccn34)ccc2C(F)(F)F)n1` [Compound 27, N-[7-(1-hydroxy-1-methylethyl)-2-phenylimidazo[1,2-a]pyridin-3-yl]-3-(1-methyl-1H-pyrazol-3-yl)-4-(trifluoromethyl) benzamide], for which the negative-log IC50 (pIC50) was 8.74.

`CN(C)C(=O)c1ccn2c(NC(=O)c3ccc(C(F)(F)F)c(-c4ccn(C)n4)c3)c(-c3ccccc3)nc2c1` [Compound 28, N,N-dimethyl-3-({[3-(1-methyl-1H-pyrazol-3-yl)-4-(trifluoromethyl)phenyl]carbonyl}amino)-2-phenylimidazo[1,2-a]pyridine-7-carboxamide] gave a pIC50 of 8.89.

Regarding `Cn1ccc(-c2cc(C(=O)Nc3c(-c4ccccc4)nc4cc(C(=O)N5CCC5)ccn34)ccc2C(F)(F)F)n1` [Compound 29, N-[7-(azetidin-1-ylcarbonyl)-2-phenylimidazo[1,2-a]pyridin-3-yl]-3-(1-methyl-1H-pyrazol-3-yl)-4-(trifluoromethyl) benzamide], the negative logarithm of the IC50 (pIC50) was 8.85.

`O=C(Nc1c(-c2ccccc2)nc2ccccn12)c1cc(-c2ncccn2)c(Cl)cc1F` [Compound 30, 4-chloro-2-fluoro-N-(2-phenylimidazo[1,2-a]pyridin-3-yl)-5-pyrimidin-2-ylbenzamide] had a pIC50 of 7.40.

The compound `Cn1ccc(-c2cc(C(=O)Nc3nc4ccccc4nc3-c3ccccc3)ccc2C(F)(F)F)n1` [Compound 31, 3-(1-methyl-1H-pyrazol-3-yl)-N-(3-phenylquinoxalin-2-yl)-4-(trifluoromethyl) benzamide] had a pIC50 of 7.57.

The compound `Cn1ccc(-c2cc(C(=O)Nc3c(-c4ccccc4)nc4ccccn34)c(O)cc2C(F)(F)F)n1` [Compound 32, 2-hydroxy-5-(1-methyl-1H-pyrazol-3-yl)-N-(2-phenylimidazo[1,2-a]pyridin-3-yl)-4-(trifluoromethyl) benzamide] showed a negative logarithm of the IC50 (pIC50) of 6.32.

In turn, `Cn1ccc(-c2cc(C(=O)Nc3c(-c4ccccc4)nc4ccccn34)c(C#N)cc2C(F)(F)F)n1` [Compound 33, 2-cyano-5-(1-methyl-1H-pyrazol-3-yl)-N-(2-phenylimidazo[1,2-a]pyridin-3-yl)-4-(trifluoromethyl) benzamide] had a negative logarithm of the IC50 (pIC50) of 6.27.

Compound `O=C(Nc1c(-c2ccccc2)nc2ccccn12)c1ccc(C(F)(F)F)c(-c2nc[nH]n2)c1` [Compound 34, N-(2-phenylimidazo[1,2-a]pyridin-3-yl)-3-(1H-1,2,4-triazol-3-yl)-4-(trifluoromethyl) benzamide] gave a pIC50 of 7.24.

Turning to `Cn1ccc(-c2cc(C(=O)Nc3c(-c4ccccc4)nc4ccccn34)c(F)cc2C(F)(F)F)n1` [Compound 35, 2-fluoro-5-(1-methyl-1H-pyrazol-3-yl)-N-(2-phenylimidazo[1,2-a]pyridin-3-yl)-4-(trifluoromethyl) benzamide], the negative logarithm of the IC50 (pIC50) is 9.31.

With `Cn1ccc(-c2cc(C(=O)Nc3c(-c4ccccc4)nc4ccc(C(C)(C)O)cn34)ccc2C(F)(F)F)n1` [Compound 36, N-[6-(1-hydroxy-1-methylethyl)-2-phenylimidazo[1,2-a]pyridin-3-yl]-3-(1-methyl-1H-pyrazol-3-yl)-4-(trifluoromethyl) benzamide], the pIC50 is 9.47.

Take `Cn1ccc(-c2cc(C(=O)Nc3c(-c4ccccc4)nc4ccc(CO)cn34)ccc2C(F)(F)F)n1` [Compound 37, N-[6-(hydroxymethyl)-2-phenylimidazo[1,2-a]pyridin-3-yl]-3-(1-methyl-1H-pyrazol-3-yl)-4-(trifluoromethyl) benzamide]: the pIC50 is 8.74.

`Cn1ccc(-c2cc(C(=O)Nc3c(-c4ccccc4)nc4c(CO)cccn34)ccc2C(F)(F)F)n1` [Compound 38, N-[8-(hydroxymethyl)-2-phenylimidazo[1,2-a]pyridin-3-yl]-3-(1-methyl-1H-pyrazol-3-yl)-4-(trifluoromethyl) benzamide] had a pIC50 of 8.62.

As to `Cn1ccc(-c2cc(C(=O)Nc3c(-c4ccccc4)nc4cc(Br)ccn34)ccc2C(F)(F)F)n1` [Compound 39, N-(7-bromo-2-phenylimidazo[1,2-a]pyridin-3-yl)-3-(1-methyl-1H-pyrazol-3-yl)-4-(trifluoromethyl) benzamide], the pIC50 is 8.57.

`O=C(Nc1c(-c2ccccc2)nc2ccccn12)c1cc(-c2cc[nH]n2)c(C(F)(F)F)cc1F` [Compound 40, 2-fluoro-N-(2-phenylimidazo[1,2-a]pyridin-3-yl)-5-(1H-pyrazol-3-yl)-4-(trifluoromethyl) benzamide] showed a pIC50 of 8.57.

As for `C[C@H](O)c1ccn2c(NC(=O)c3ccc(C(F)(F)F)c(-c4ccn(C)n4)c3)c(-c3ccccc3)nc2c1` [Compound 41, N-{7-[(1S)-1-hydroxyethyl]-2-phenylimidazo[1,2-a]pyridin-3-yl}-3-(1-methyl-1H-pyrazol-3-yl)-4-(trifluoromethyl) benzamide], the negative logarithm of the IC50 (pIC50) was 9.02.

Take `CC(C)(O)c1ccn2c(NC(=O)c3ccc(C(F)(F)F)c(-c4ncccn4)c3)c(-c3ccccc3)nc2c1` [Compound 43, N-[7-(1-hydroxy-1-methylethyl)-2-phenylimidazo[1,2-a]pyridin-3-yl]-3-pyrimidin-2-yl-4-(trifluoromethyl) benzamide]: the negative-log IC50 (pIC50) is 8.10.

Compound `CC(C)(O)c1ccc2nc(-c3ccccc3)c(NC(=O)c3ccc(C(F)(F)F)c(-c4ncccn4)c3)n2c1` [Compound 44, N-[6-(1-hydroxy-1-methylethyl)-2-phenylimidazo[1,2-a]pyridin-3-yl]-3-pyrimidin-2-yl-4-(trifluoromethyl) benzamide] showed a pIC50 of 8.85.

Consider `COC1CN(Cc2ccn3c(NC(=O)c4ccc(C(F)(F)F)c(-c5ccn(C)n5)c4)c(-c4ccccc4)nc3c2)C1` [Compound 45, N-{7-[(3-methoxyazetidin-1-yl)methyl]-2-phenylimidazo[1,2-a]pyridin-3-yl}-3-(1-methyl-1H-pyrazol-3-yl)-4-(trifluoromethyl) benzamide], for which the pIC50 is 8.30.

For `Cc1coc(-c2cc(C(=O)Nc3c(-c4ccccc4)nc4cc(C(C)(C)O)ccn34)ccc2C(F)(F)F)n1` [Compound 46, N-[7-(1-hydroxy-1-methylethyl)-2-phenylimidazo[1,2-a]pyridin-3-yl]-3-(4-methyl-1,3-oxazol-2-yl)-4-(trifluoromethyl) benzamide], the pIC50 was 9.36.

`Cn1ccc(-c2cc(C(=O)Nc3c(-c4ccccc4)nc4ccc(CN5CC(F)C5)cn34)ccc2C(F)(F)F)n1` [Compound 47, N-{6-[(3-fluoroazetidin-1-yl)methyl]-2-phenylimidazo[1,2-a]pyridin-3-yl}-3-(1-methyl-1H-pyrazol-3-yl)-4-(trifluoromethyl) benzamide] showed a pIC50 of 8.06.

On to `Cn1ccc(-c2cc(C(=O)Nc3c(-c4ccccc4)nc4cc(C(C)(C)O)ccn34)c(F)cc2C(F)(F)F)n1` [Compound 50, 2-fluoro-N-[7-(1-hydroxy-1-methylethyl)-2-phenylimidazo[1,2-a]pyridin-3-yl]-5-(1-methyl-1H-pyrazol-3-yl)-4-(trifluoromethyl) benzamide], for which the pIC50 is 9.35.

`CC(C)(O)c1ccn2c(NC(=O)c3cc(-c4ncccn4)c(C(F)(F)F)cc3F)c(-c3ccccc3)nc2c1` [Compound 53, 2-fluoro-N-[7-(1-hydroxy-1-methylethyl)-2-phenylimidazo[1,2-a]pyridin-3-yl]-5-pyrimidin-2-yl-4-(trifluoromethyl) benzamide] gave a negative logarithm of the IC50 (pIC50) of 8.96.

`COc1ccn2c(NC(=O)c3cc(-c4ncccn4)c(C(F)(F)F)cc3F)c(-c3ccccc3)nc2c1` [Compound 59, 2-fluoro-N-(7-methoxy-2-phenylimidazo[1,2-a]pyridin-3-yl)-5-pyrimidin-2-yl-4-(trifluoromethyl) benzamide] had a pIC50 of 8.77.

With `Cc1ccn(-c2cc(C(=O)Nc3c(-c4ccccc4)nc4cc(C(C)(C)O)ccn34)ccc2C(F)(F)F)n1` [Compound 60, N-[7-(1-hydroxy-1-methylethyl)-2-phenylimidazo[1,2-a]pyridin-3-yl]-3-(3-methyl-1H-pyrazol-1-yl)-4-(trifluoromethyl) benzamide], the negative logarithm of the IC50 (pIC50) was 7.85.

Compound `Cn1ccc(-c2cc(C(=O)Nc3c(-c4ccccc4)nc4cc(C5(O)CC5)ccn34)ccc2C(F)(F)F)n1` [Compound 69, N-[7-(1-hydroxycyclopropyl)-2-phenylimidazo[1,2-a]pyridin-3-yl]-3-(1-methyl-1H-pyrazol-3-yl)-4-(trifluoromethyl) benzamide] showed a negative logarithm of the IC50 (pIC50) of 8.47.

Consider `Cn1ccc(-c2cc(C(=O)Nc3c(-c4ccccc4)nc4cc(C(C)(C)O)ccn34)c(Cl)cc2C(F)(F)F)n1` [Compound 70, 2-chloro-N-[7-(1-hydroxy-1-methylethyl)-2-phenylimidazo[1,2-a]pyridin-3-yl]-5-(1-methyl-1H-pyrazol-3-yl)-4-(trifluoromethyl) benzamide], for which the negative-log IC50 (pIC50) was 8.92.

`Cc1ccnc(-c2cc(C(=O)Nc3c(-c4ccccc4)nc4cc(C(C)(C)O)ccn34)c(Cl)cc2C(F)(F)F)n1` [Compound 71, 2-chloro-N-[7-(1-hydroxy-1-methylethyl)-2-phenylimidazo[1,2-a]pyridin-3-yl]-5-(4-methylpyrimidin-2-yl)-4-(trifluoromethyl) benzamide] gave a negative logarithm of the IC50 (pIC50) of 8.12.

Take `Cn1ccc(-c2cc(C(=O)Nc3c(-c4ccccc4)[nH]c4ccccc34)c(F)cc2C(F)(F)F)n1` [Compound 72, 2-fluoro-5-(1-methyl-1H-pyrazol-3-yl)-N-(2-phenyl-1H-indol-3-yl)-4-(trifluoromethyl) benzamide]: the negative-log IC50 (pIC50) was 8.39.

Consider `Cc1cc(C(F)(F)F)c(-c2ccn(C)n2)cc1C(=O)Nc1c(-c2ccccc2)nc2cc(C(C)(C)O)ccn12` [Compound 75, N-[7-(1-hydroxy-1-methylethyl)-2-phenylimidazo[1,2-a]pyridin-3-yl]-2-methyl-5-(1-methyl-1H-pyrazol-3-yl)-4-(trifluoromethyl) benzamide], for which the negative logarithm of the IC50 (pIC50) was 8.35.

`O=C(Nc1c(-c2ccccc2)[nH]c2ccccc12)c1cc(-c2ncccn2)c(C(F)(F)F)cc1F` [Compound 76, 2-fluoro-N-(2-phenyl-1H-indol-3-yl)-5-pyrimidin-2-yl-4-(trifluoromethyl) benzamide] gave a negative logarithm of the IC50 (pIC50) of 8.09.
